{"source": "patent US7371364B2", "about": "“Cyclic peptide and imaging compound compositions and uses for targeted imaging and therapy” (Board of Regents, The University of Texas System, priority 2003, dated 2008)", "key": {"human tumor cells": {"tested_on": "human tumor cells", "test": "In vitro tumor cell binding study (fluorescence microscopy)", "assay_type": "cell-based", "method": "All human tumor cell-lines were obtained from American Type Culture Collection (Rockville, Md.) and were maintained at 37° C. in a humidified atmosphere containing 5% CO2 in Dulbecco's Modified Eagle's Medium/Nutrient Mixture F-12 Ham (DMEM/F12) and 10% FBS (Gibco, Grand Island, N.Y.).\nCells were seeded on cover slips in 24-well plates (Becton Dickinson Labware, Franklin Lakes, N.J.) and incubated in DMEM/F12 culture medium (0.5 ml/well) overnight. Cy5.5 and Cy5.5-HWG polypeptide imaging agents were added into each well at the indicated concentrations. For the blocking study, doxycycline was added to the culture medium followed by the addition of Cy5.5-HWG polypeptide imaging agent 1 hour later. After an incubation period of 5-60 minutes at 37° C., cells were washed twice with PBS and incubated in a solution of Sytox Green in 95% ethyl alcohol (1 μM, Molecular Probe, Eugene, Oreg.) for 15 minutes to fix and stain cell nuclei. For staining of MMP expression, cells that were pretreated with Cy5.5-HWG polypeptide and stained with Sytox Green were incubated with anti-MMP antibody (Sigma) (1 mg/ml; 1:200 dilution) for 1 hour at room temperature. The cells were then washed and incubated with Texas Red conjugated go at anti-rabbit IgG (Molecular Probe, 4 μg/ml) at room temperature for 1 hour. Cells were washed again with PBS and the cover slips were mounted for microscopic examination using a DMR microscope (Leica Microsystems, Inc., Brannockburn, Ill.). The microscope was equipped with a 75W Xenon lamp, 775 nm/845 nm, 560 nm/645 nm, and 480 nm/535 nm (Excitation/emission) filters (Chroma Technology Corp., Brattleboro, Vt.), a Hamamatsu B/W Chilled CCD camera (Hamamatsu Photonics K.K., Hamamatsu City, Japan), and Image-Pro Plus 4.5.1 software (Media Cybernetics, Silver Spring, Md.). In the multiple staining images, Cy5.5, MMPs, and Sytox Green were pseudocolored red, green, and blue, respectively."}, "HT1080 tumor": {"tested_on": "HT1080 tumor", "test": "In vivo NIR fluorescent imaging with HWG imaging agent", "design": "species or system mice", "conditions": "subcutaneous HT1080 tumor, 27 hours after i.v. injection, 15 nmol/mouse", "method": "(§1) Four to six week-old athymic nude mice (18-22 g, Harlan Sprague Dawley, Inc., Indianapolis, Ind.) were housed 5 per cage with sterilized pet chow (Harlan Sprague Dawley) and sterilized water. Animals were maintained in a pathogen-free mouse colony in the Department of Veterinary Medicine at the University of Texas M.D. Anderson Cancer Center. All experiments were performed in accordance with the guidelines of the Institutional Animal Care and Use Committee. Tumor cells were harvested near confluence by incubation with 0.05% trypsin-EDTA. Cells were pelleted by centrifugation at 450×g for 5 minutes and resuspended in sterile PBS. Cells (2-3×10^6/animal) were implanted subcutaneously into the chest wall or the hind legs of the mice. Human PC-3 prostate tumors were obtained by intratibia injection of PC-3 cells into male nude mice. Human U87 glioma tumors were obtained by intracranial injection.\n(§2) In vivo fluorescence imaging was accomplished by illuminating the animal with light from a laser diode (785 nm, 80 mW for IGC; 660 nm, 35 mW for Cy 5.5 dyes) expanded to an approximate 8 cm diameter circular area. The re-emitted fluorescent light was collected by an image intensifier (model FS9910C, ITT Night Vision, Roanoke, Va.) lens-coupled to a CCD camera (model CH350, Photometrics, Tucson, Ariz.). The imaging was designed so that the field of view could be varied from 3×3 cm to over 12×12 cm by varying the image distance of the 50 mm lens used to focus the image onto the photocathode of the intensifier. The lens was fitted with a holographic notch-plus filter (785 nm center wavelength for ICG and 660 nm center wavelength for Cy5.5 dyes; Kaiser Optical Systems, Inc., Ann Arbor, Mich.) and a bandpass filter (830 nm center wavelength for ICG, 710 nm center wavelength for Cy5.5 dyes) to reject back-scattered and reflected excitation photons. Image acquisition was accomplished using V++ software (Digital Optics, Auckland, New Zealand) and obtained images were stored in uncompressed tagged image file format (tiff). Data processing and analysis was accomplished using Matlab software (The Math Works, Inc., Natick, Mass.)."}, "KS1767 tumors": {"tested_on": "KS1767 tumors", "test": "In vivo NIR fluorescent imaging with HWG imaging agent", "design": "species or system mice", "conditions": "subcutaneous KS1767 tumors, 15 nmol per mouse", "method": "as §1, §2"}, "MDA-MB-468 tumors": {"tested_on": "MDA-MB-468 tumors", "test": "In vivo NIR fluorescent imaging with HWG imaging agent", "design": "species or system mice", "conditions": "subcutaneous MDA-MB-468 tumors, 15 nmol per mouse", "method": "as §1, §2"}, "SKBr-3 tumors": {"tested_on": "SKBr-3 tumors", "test": "In vivo NIR fluorescent imaging with HWG imaging agent", "design": "species or system mice", "conditions": "4 days after i.v. injection, 15 nmol per mouse", "method": "as §1, §2"}, "human glioma U87 tumor": {"tested_on": "human glioma U87 tumor", "test": "In vivo NIR fluorescent imaging with HWG imaging agent", "design": "species or system mice", "method": "as §1, §2"}, "[1]": {"tested_on": "intratibia PC-3 prostate tumors", "test": "In vivo NIR fluorescent imaging with HWG imaging agent", "design": "species or system mice", "method": "Four to six week-old athymic nude mice (18-22 g, Harlan Sprague Dawley, Inc., Indianapolis, Ind.) were housed 5 per cage with sterilized pet chow (Harlan Sprague Dawley) and sterilized water. Animals were maintained in a pathogen-free mouse colony in the Department of Veterinary Medicine at the University of Texas M.D. Anderson Cancer Center. All experiments were performed in accordance with the guidelines of the Institutional Animal Care and Use Committee. Tumor cells were harvested near confluence by incubation with 0.05% trypsin-EDTA. Cells were pelleted by centrifugation at 450×g for 5 minutes and resuspended in sterile PBS. Cells (2-3×10^6/animal) were implanted subcutaneously into the chest wall or the hind legs of the mice. Human PC-3 prostate tumors were obtained by intratibia injection of PC-3 cells into male nude mice. Human U87 glioma tumors were obtained by intracranial injection. In vivo fluorescence imaging was accomplished by illuminating the animal with light from a laser diode (785 nm, 80 mW for IGC; 660 nm, 35 mW for Cy 5.5 dyes) expanded to an approximate 8 cm diameter circular area. The re-emitted fluorescent light was collected by an image intensifier (model F[…], ITT Night Vision, Roanoke, Va.) lens-coupled to a CCD camera (model CH350, Photometrics, Tucson, Ariz.). The imaging was designed so that the field of view could be varied from 3×3 cm to over 12×12 cm by varying the image distance of the 50 mm lens used to focus the image onto the photocathode of the intensifier. The lens was fitted with a holographic notch-plus filter (785 nm center wavelength for ICG and 660 nm center wavelength for Cy5.5 dyes; Kaiser Optical Systems, Inc., Ann Arbor, Mich.) and a bandpass filter (830 nm center wavelength for ICG, 710 nm center wavelength for Cy5.5 dyes) to reject back-scattered and reflected excitation photons. Image acquisition was accomplished using V++ software (Digital Optics, Auckland, New Zealand) and obtained images were stored in uncompressed tagged image file format (tiff). […]"}}, "note": "Positions of bridges follow the written chain, without caps; N, C: chain ends. Cy5.5 = cyanine near-infrared dye Cy5.5, conjugated via its NHS ester to the amino group", "data": [{"substance": "Cy5.5-c(KAHWGFTLD)NH2 ({Cy5.5}-KAHWGFTLD-NH2; lactam 1-9)", "values": [{"measurement": "Binding to tumor cells", "setting": "human tumor cells; SKBr-3, HT1080, MDA-MB-435, MDA-MB-468, U87 (PC-3 and U87 for the Tyr analogue), 37° C.", "value": "bound"}, {"measurement": "Co-localization with MMPs (MMP-2, MMP-8, MMP-9 staining)", "setting": "human tumor cells; all cell lines tested", "value": "co-localized with MMPs"}, {"measurement": "Visualization of tumor in NIR image", "setting": "HT1080 tumor", "value": "clearly visualized with minimal background signal"}, {"measurement": "Visualization of tumor in NIR image", "setting": "KS1767 tumors", "value": "clearly visualized"}, {"measurement": "Visualization of tumor in NIR image", "setting": "MDA-MB-468 tumors", "value": "clearly visualized"}, {"measurement": "Fluorescent signal in tumor", "setting": "SKBr-3 tumors", "value": "strong fluorescent signal"}, {"measurement": "Binding and retention in the tumor (NIR image)", "setting": "human glioma U87 tumor; intracranial U87, tumor 3-4 mm, 12 days after inoculation, 38 hours after injection, intact animal and excised brain", "value": "clearly depicted"}, {"measurement": "Visualization of small tumor in NIR image", "setting": "human glioma U87 tumor; subcutaneous U87, lesion less than 2 mm, 3 days after inoculation, 24 and 48 hours after injection", "value": "clearly visualized"}, {"measurement": "Fluorescent signal in contra lateral tibia region preinjected with saline", "setting": "[1]; control leg, i.v. injection of imaging agent", "value": "no fluorescent signal was detected"}, {"measurement": "Visualization of small tumor in NIR image", "setting": "[1]; intratibia PC-3, no lesion by X-ray, 3 days after inoculation, 24 and 48 hours after injection", "value": "clearly visualized"}, {"measurement": "Presence of tumors shown in NIR images (specificity versus scrambled peptide)", "setting": "[1]; intratibia PC-3 inoculated 3 days earlier, images 24 hours after injection", "value": "clearly showed the presence of tumors"}]}]}
